Experimental data from patent US20250129027A1 (APOGEE PHARMACEUTICALS, INC., priority 2023, published 2025).

Tests used:
[1] = molecular target: human recombinant FAAH (Homo sapiens (Human), UniProt O00519); assay: In vitro inhibition of FAAH activity (fluorescent inhibitor screening kit, AMC arachidonoyl amide); assay type: biochemical; settings: human recombinant FAAH; read-out: Inhibition on FAAH activity (IC50)
Text: The inhibitory effect of compounds of Formula (I-IV) on the activity of human recombinant FAAH was studied using a commercial inhibitor screening kit (Cayman Chemicals, Godlewski et al., 2010 [19]). In brief, FAAH hydrolyzes AMC arachidonoyl amide resulting in the release of the fluorescent product, while the inhibitor will inhibit the FAAH activity and thus reduce the fluorescent signal. The resulting fluorophore can be analyzed using an excitation wavelength of 340-360 nm and an emission wavelength of 450-465 nm by a plate reader (Synergy H1, Biotek). Inhibition is calculated as a percentage of the treated sample over the non-treated control based on the signal values, and where possible, a range of concentrations of compounds was tested to find the IC50 values (i.e. the concentration of compound that inhibited 50% FAAH activity).

[2] = molecular target: human recombinant MAGL (Homo sapiens (Human), UniProt Q99685); assay: In vitro inhibition of MAGL activity (inhibitor screening kit, 4-nitrophenylacetate); assay type: biochemical; settings: human recombinant MAGL
Sequence of human recombinant MAGL (Q99685 whole entry): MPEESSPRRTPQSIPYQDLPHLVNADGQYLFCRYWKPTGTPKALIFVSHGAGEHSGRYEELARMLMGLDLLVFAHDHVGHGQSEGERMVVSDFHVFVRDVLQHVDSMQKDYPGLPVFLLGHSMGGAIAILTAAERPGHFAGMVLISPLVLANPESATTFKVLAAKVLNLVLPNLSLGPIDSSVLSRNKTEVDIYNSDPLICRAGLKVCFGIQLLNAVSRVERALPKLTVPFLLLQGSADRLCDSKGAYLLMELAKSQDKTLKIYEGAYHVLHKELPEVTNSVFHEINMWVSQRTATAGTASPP
Procedure: The inhibitory effect of the compounds on activity of human recombinant MAGL was also studied using a commercial inhibitor screening kit (Cayman Chemicals). In brief, MAGL hydrolyzes 4-nitrophenylacetate resulting in a yellow product, 4-nitrophenol with an absorbance at 405-412 nm, while the inhibitor will inhibit the MAGL activity and thus reduce the yellow signal. The absorbance of the yellow product can be analyzed using the plate reader. Inhibition is calculated as a percentage of the treated sample over the non-treated MAGL control based on the signal values.

Sequence of human recombinant FAAH (O00519 whole entry): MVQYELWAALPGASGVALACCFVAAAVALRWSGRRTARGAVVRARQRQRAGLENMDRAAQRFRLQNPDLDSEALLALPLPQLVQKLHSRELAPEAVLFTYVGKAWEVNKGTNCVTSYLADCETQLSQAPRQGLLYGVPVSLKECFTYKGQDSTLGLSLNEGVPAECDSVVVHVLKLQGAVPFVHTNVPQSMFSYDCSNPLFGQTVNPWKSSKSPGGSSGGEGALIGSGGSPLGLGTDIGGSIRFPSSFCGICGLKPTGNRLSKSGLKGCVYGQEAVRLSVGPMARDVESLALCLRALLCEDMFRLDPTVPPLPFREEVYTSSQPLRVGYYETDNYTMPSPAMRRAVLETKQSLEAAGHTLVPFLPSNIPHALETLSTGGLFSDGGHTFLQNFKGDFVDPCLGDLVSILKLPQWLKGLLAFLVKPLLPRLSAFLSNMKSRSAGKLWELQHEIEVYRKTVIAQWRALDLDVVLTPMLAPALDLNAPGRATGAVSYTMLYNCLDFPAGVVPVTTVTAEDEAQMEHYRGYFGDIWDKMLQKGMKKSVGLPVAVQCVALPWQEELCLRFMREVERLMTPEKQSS

SMILES	IC50 [1] [nM]	IC50 [2] [nM]
O=C(NC1CCCCCC1)Oc1cccc(-c2cncc(-c3nccs3)c2)c1 [Example 120, 3-(5-(thiazol-2-yl)pyridin-3-yl)phenyl cycloheptylcarbamate]	10 to 100	~10000
O=C(NCc1ccccc1)Oc1cc(F)cc(-c2cncc(-c3nnco3)c2)c1 [Example 196, 3-(5-(1,3,4-oxadiazol-2-yl)pyridin-3-yl)-5-fluorophenyl benzylcarbamate]	> 1000	~10000
CCCCCCCCNC(=O)Oc1cccc(-c2cncc(-c3nnco3)n2)c1 [Example 263, 3-(6-(1,3,4-oxadiazol-2-yl)pyrazin-2-yl)phenyl octylcarbamate]	1 to 10	1000 to 10000
O=C(NCc1ccccc1)Oc1cccc(-c2cncc(-c3nnco3)c2)c1 [Example 135, 3-(5-(1,3,4-oxadiazol-2-yl)pyridin-3-yl)phenyl benzylcarbamate]	> 100	> 50000
O=C(NCc1ccccc1)Oc1cccc(-c2cncc(-c3ccc[nH]3)c2)c1 [Example 37, 3-(5-(1H-pyrrol-2-yl)pyridin-3-yl)phenyl benzylcarbamate]	~1000	> 10000
O=C(NCC1CCCCC1)Oc1cccc(-c2cncc(C(F)(F)F)c2)c1 [Example 31, 3-(5-(trifluoromethyl)pyridin-3-yl)phenyl (cyclohexylmethyl)carbamate]	10 to 100	> 1000
COc1ccc(OC(=O)NC2CCCC2)cc1-c1cncc(-c2ccco2)c1 [Example 56, 3-(5-(furan-2-yl)pyridin-3-yl)-4-methoxyphenyl cyclopentylcarbamate]	100 to 1000	> 10000
O=C(NC1CCCC1)Oc1cccc(-c2cncc(-c3ccco3)c2)c1 [Example 50, 3-(5-(furan-2-yl)pyridin-3-yl)phenyl cyclopentylcarbamate]	10 to 100	~10000
Cc1ccc(-c2cncc(-c3ncco3)c2)cc1OC(=O)NC1CCCCCC1 [Example 97, 2-methyl-5-(5-(oxazol-2-yl)pyridin-3-yl)phenyl cycloheptylcarbamate]	> 1000	> 1000
CCCCCCCCNC(=O)Oc1cccc(-c2cncc(-c3ncn[nH]3)c2)c1 [Example 219, 3-(5-(1H-1,2,4-triazol-5-yl)pyridin-3-yl)phenyl octyl carbamate]	1 to 10	~10000
CCCCCCCCNC(=O)Oc1cccc(-c2cncc(-c3nnn[nH]3)c2)c1 [Example 238, 3-(5-(1H-tetrazol-5-yl)pyridin-3-yl)phenyl octylcarbamate]	10 to 100	~10000
O=C(NCc1ccccc1)Oc1cccc(-c2cncc(-c3nnco3)n2)c1 [Example 265, 3-(6-(1,3,4-oxadiazol-2-yl)pyrazin-2-yl)phenyl benzylcarbamate]	100 to 1000	> 10000
COC(=O)c1cncc(-c2cccc(OC(=O)NC34CC5CC(CC(C5)C3)C4)c2)c1 [Example 13, methyl 5-(3-((((1s,3s)-adamantan-1-yl)carbamoyl)oxy)phenyl)nicotinate]	> 1000	> 10000
COc1ccc(OC(=O)NC2CCCCCC2)cc1-c1cncc(-c2cccs2)c1 [Example 70, 4-methoxy-3-(5-(thiophen-2-yl)pyridin-3-yl)phenyl cycloheptylcarbamate]	100 to 1000	> 10000
O=C(NC1CCCCC1)Oc1ccc(OC(F)(F)F)c(-c2cncc(-c3ncco3)c2)c1 [Example 89, 3-(5-(oxazol-2-yl)pyridin-3-yl)-4-(trifluoromethoxy)phenyl cyclohexylcarbamate]	100 to 1000	> 10000
COc1ccc(OC(=O)NC2CCCCC2)cc1-c1cncc(-c2cccs2)c1 [Example 69, 4-methoxy-3-(5-(thiophen-2-yl)pyridin-3-yl)phenyl cyclohexylcarbamate]	100 to 1000	> 10000
O=C(NC1CCCC1)Oc1ccc(O)c(-c2cncc(-c3nnn[nH]3)c2)c1 [Example 247, 3-(5-(1H-tetrazol-5-yl)pyridin-3-yl)-4-hydroxyphenyl cyclopentylcarbamate]	> 1000	> 10000
O=C(NCC1CCCCC1)Oc1cccc(-c2cncc(-c3nnco3)n2)c1 [Example 264, 3-(6-(1,3,4-oxadiazol-2-yl)pyrazin-2-yl)phenyl (cyclohexylmethyl)carbamate]	10 to 100	~10000
CCCCN(CCCC)C(=O)Oc1cccc(-c2cncc(-c3nnco3)c2)c1 [Example 155, 3-(5-(1,3,4-oxadiazol-2-yl)pyridin-3-yl)phenyl dibutylcarbamate]	> 1000	~10000
O=C(Oc1cccc(-c2cncc(-c3nnco3)c2)c1)N1CC2CC2C1 (stereo not shown) [Example 148, 3-(5-(1,3,4-oxadiazol-2-yl)pyridin-3-yl)phenyl 3-azabicyclo[3.1.0]hexane-3-carboxylate]	> 1000	> 10000
CCCCCCCNC(=O)Oc1ccc(O)c(-c2cncc(-c3nnco3)c2)c1 [Example 156, 3-(5-(1,3,4-oxadiazol-2-yl)pyridin-3-yl)-4-hydroxyphenyl heptylcarbamate]	1 to 10	–

SMILES	IC50 [1] [nM]	IC50 [2] [nM]
CCCCCCCCCCCCNC(=O)Oc1cccc(-c2cncc(-c3nnco3)c2)c1 [Example 131, 3-(5-(1,3,4-oxadiazol-2-yl)pyridin-3-yl)phenyl dodecylcarbamate]	10 to 20	–
O=C(NC1CCCCC1)Oc1cccc(-c2cc(-c3nnco3)ccn2)c1 [Example 260, 3-(4-(1,3,4-oxadiazol-2-yl)pyridin-2-yl)phenyl cyclohexylcarbamate]	–	> 10000
CCCCCCNC(=O)Oc1cccc(-c2cncc(-c3nnco3)c2)c1 [Example 128, 3-(5-(1,3,4-oxadiazol-2-yl)pyridin-3-yl)phenyl hexylcarbamate]	10 to 20	–
CCCCCCCCNC(=O)Oc1cccc(-c2cncc(C(F)(F)F)c2)c1 [Example 30, 3-(5-(trifluoromethyl)pyridin-3-yl)phenyl octylcarbamate]	10 to 100	–
CCCCCCCNC(=O)Oc1cccc(-c2cncc(C#N)c2)c1 [Example 26, 3-(5-cyanopyridin-3-yl)phenyl heptylcarbamate]	10 to 100	–
COc1ccc(OC(=O)NC2CCCCC2)cc1-c1cncc(-c2nncs2)c1 [Example 217, 3-(5-(1,3,4-thiadiazol-2-yl)pyridin-3-yl)-4-methoxyphenyl cyclohexylcarbamate]	100 to 1000	–
CCCCCCCCNC(=O)Oc1ccc(O)c(-c2cncc(-c3nnco3)c2)c1 [Example 157, 3-(5-(1,3,4-oxadiazol-2-yl)pyridin-3-yl)-4-hydroxyphenyl octylcarbamate]	1 to 10	–
CCCCCCCCNC(=O)Oc1cccc(-c2cncc(C(=O)OC)c2)c1 [Example 10, methyl 5-(3-((octylcarbamoyl)oxy)phenyl)nicotinate]	1 to 10	–
CCCCCCCNC(=O)Oc1ccc(OC)c(-c2cncc(-c3nnco3)c2)c1 [Example 166, 3-(5-(1,3,4-oxadiazol-2-yl)pyridin-3-yl)-4-methoxyphenyl heptylcarbamate]	10 to 100	–
CCCCCCCCNC(=O)Oc1cccc(-c2cncc(C(=O)OCC)c2)c1 [Example 3, ethyl 5-(3-((octylcarbamoyl)oxy)phenyl)nicotinate]	10 to 100	–
CCCCCNC(=O)Oc1cccc(-c2cncc(C(=O)OC)c2)c1 [Example 8, methyl 5-(3-((pentylcarbamoyl)oxy)phenyl)nicotinate]	10 to 100	–
CCCCCNC(=O)Oc1cccc(-c2cncc(C(=O)OCC)c2)c1 [Example 1, ethyl 5-(3-((pentylcarbamoyl)oxy)phenyl)nicotinate]	10 to 100	–
CCCCCCCCNC(=O)Oc1cccc(-c2cncc(-c3ccco3)c2)c1 [Example 47, 3-(5-(furan-2-yl)pyridin-3-yl)phenyl octylcarbamate]	1 to 10	–
CCCCCCCNC(=O)Oc1cccc(-c2cncc(C(=O)OC)c2)c1 [Example 9, methyl 5-(3-((heptylcarbamoyl)oxy)phenyl)nicotinate]	1 to 10	–
CCCCCCCCNC(=O)Oc1cccc(-c2cncc(-c3nnco3)c2)c1 [Example 130, 3-(5-(1,3,4-oxadiazol-2-yl)pyridine-3-yl)phenyl octylcarbamate]	1 to 10	–
CCCCCCCCNC(=O)Oc1cccc(-c2cncc(C#N)c2)c1 [Example 27, 3-(5-cyanopyridin-3-yl)phenyl octylcarbamate]	10 to 100	–
CCCCCCCCNC(=O)Oc1ccc(OC)c(-c2cncc(-c3cccs3)c2)c1 [Example 65, 4-methoxy-3-(5-(thiophen-2-yl)pyridin-3-yl)phenyl octylcarbamate]	10 to 100	–
CCCCCCCCNC(=O)Oc1ccc(OC)c(-c2cncc(-c3ccc[nH]3)c2)c1 [Example 41, 3-(5-(1H-pyrrol-2-yl)pyridin-3-yl)-4-methoxyphenyl octylcarbamate]	10 to 100	–
CCCCCCCCNC(=O)Oc1ccc(OC(F)(F)F)c(-c2cncc(-c3ncco3)c2)c1 [Example 88, 3-(5-(oxazol-2-yl)pyridin-3-yl)-4-(trifluoromethoxy)phenyl octylcarbamate]	10 to 100	–
CCCCCCCCNC(=O)Oc1ccc(OC)c(-c2cncc(-c3nnco3)c2)c1 [Example 167, 3-(5-(1,3,4-oxadiazol-2-yl)pyridin-3-yl)-4-methoxyphenyl octylcarbamate]	1 to 10	–
